Measurements reported in patent US10556860B2, “hTERT modulators and methods of use” (Arizona Board of Regents on Behalf of the University of …, priority 2015, dated 2020).
Several values for one entry are separate records, joined by “and”; a condition that tells them apart may be missing. Equal entries are not always repeated.

How the values were obtained:
[1] = test system: telomere length in MCF7 cells; experiment: Telomere length assay (qPCR) in MCF7 cells; assay type: cell-based, human; conditions: 0.5 μM
Method: Telomere length assay. MCF7 cells were treated with DMSO, GTC365 for 5-10 days, or BRACO-19 for 25-30 days. Meanwhile, cells were subcultured to maintain <90% confluent. Cells were collected by cell scraper and then subjected to gDNA extraction by DNA extraction kit (Qiagen). Ten ng of gDNA was used for SYBR Green I-based qPCR assay with 1 M betaine, 700 nM telomere primers, and 200 nM 36B4 single-copy gene. A pair of Tel1 and Tel2 was used for amplification of the telomere region and a pair of 36B4F and 36B4R for amplification of a single-copy gene to normalize data. The PCR was initiated at 95° C. for 3 min and then 27 cycles at 95° C. for 3 sec and 60° C. for 2 min. The fluorescence signal at 60° C. was acquired. Triplicate data was averaged and normalized to 36B4 to obtain ΔCt. The relative telomere length was determined compared to the DMSO.
hTERT-positive MCF7 breast cancer cell lines were used to gain mechanistic insight into how the GTC365-induced inhibition of proliferation occurs. Change in relative telomere length by GTC365 was measured by qPCR with gDNA extracted from GTC365-treated MCF7 cells. After 10 days of treatment GTC365 decreased telomere length in a dose-dependent manner, and at a dose of 0.5 μM, the telomere length was reduced by 20%. In contrast, BRACO-19 reduced telomere length by ˜12% at the same concentration but required 25-30 days of treatment (FIG. 9).

MYC mRNA = experiment: qPCR of MYC mRNA in MCF7 cells; assay type: cell-based, human; conditions: 72 h
Method: qPCR. MCF7 and melanoma cells were treated with GTC365 and BRACO-19 for 72 h. Total RNA was extracted using an RNeasy mini-prep kit (Qiagen) and quantitated by measuring absorbance at 260 nm. cDNA was synthesized using a Takara PrimeScript™ RT Reagent Kit with gDNA eraser and then used as a template for qPCR. The qPCR was performed using Kapa Probe Fast qPCR Master Mix with ABI Taqman probes of hTERT (Hs00972656_m1), BCL2 (HS00608023_m1, FAM-labeled) or MYC (Hs00153408_m1), and GAPDH (Hs02758991_g1, VIC-labeled). The Ct values were measured by running Rotor-Gene Q, and the relative quantity of hTERT, BCL2, and MYC mRNA was obtained compared to GAPDH as an internal control.
BCL2 is a downstream molecule to hTERT such that BCL2 expression is activated by hTERT to repress apoptosis. To further define the effect of GTC365 on the transcription of hTERT, the relative mRNA levels of MYC and BCL2 were determined by quantitative PCR analysis in MCF7 cells after treatment with GTC365 for 72 h. […] A series of GTC260 analogs were synthesized and their effect on hTERT gene expression in MCF7A and U87 cells determined (FIG. 7). […] Therefore, GTC365 directly repressed the transcription of hTERT and then led to a downstream decrease of BCL2 expression.

[2] = test system: hTERT WT G4 (5-12 G-quadruplex); experiment: CD melting (Tm), hTERT WT G4; assay type: binding, human
Method: Circular dichroism. Oligomers of WT, G124A, G124/125A, G138/139A and G146A were synthesized and HPSF-purified by MGW Operon, Inc. For CD analysis, oligomers (5 μM) in a buffer containing 10 mM Tris-HCl (pH 7.5) and 140 mM KCl were annealed. For the CD analysis of the complex of oligomers and compounds, oligomers (5 μM) in a buffer containing 10 mM Tris-HCl (pH 7.5) and 5 mM KCl for GTC365 or 1 mM KCl for BRACO-19 were annealed. Oligomers and GTC365 or BRACO-19 were incubated overnight at room temperature. For the full-length of C-rich strand, the oligomer in a buffer of 10 mM Na cacodylate (pH 6.6) was annealed and then incubated with GTC365 overnight. CD analysis was conducted on a Jasco 810 spectropolarimeter (Jasco, Easton, Md.) using a quartz cell with 1 mm of path length, 1 nm of band width, and 1 s of response time for spectra at 20° C. Melting curves for the determination of Tm were obtained by recording ellipticity at 262 nm with increasing temperatures from 25° C. to 95° C. at a rate of 1.6° C./min. Tm of the C-rich strand with GTC365 was obtained from the CD signal at 286 nm within 10-60° C.
CD and DMS footprinting analyses were conducted to characterize the binding of GTC365 and BRACO-19 to the 5-12 G-quadruplex. […] To verify the effects of compounds on the thermal stability of the WT and the mutant G-quadruplexes, Tms were determined by CD. […] Since acridine derivatives are known to bind to telomeric G-quadruplex, the effects of GTC365 and BRACO-19 on telomeric G-quadruplex stability were compared by CD.

[3] = test system: hTERT core promoter (pGL3-WT); experiment: Luciferase assay, pGL3-WT in MCF7 cells; assay type: cell-based, human; conditions: 24 h
Method: Luciferase assay. From gDNA extracted from HeLa cells, the hTERT core promoter region, including −350 bp to +12 from the transcription start site, was amplified using a pair of primers, including KpnI and NheI restriction sites, for cloning of pGL3-hTERT with WT promoter sequence. Mutant constructs were generated by PCR-based site-directed mutagenesis. The sequence of each construct was confirmed by sequencing analysis. MCF7 cells in 24-well plate were transfected with 200 ng of pGL3 construct and 5 ng of pRL-TK by Fugene® HD Transfection Reagent and then incubated for 6 h. Media were replaced by fresh ones and the cells were treated with GTC365 or BRACO-19. The same volume of DMSO served as a control. […]
Since MYC is a key transcription factor for activation of the hTERT gene by binding to an E-box in the hTERT promoter region and is one of the oncogenes having a G-quadruplex structure in the promoter region, it was important to confirm that GTC365 affects the repression of hTERT promoter activity directly by binding to the G-quadruplex structure formed in the hTERT promoter and not by binding to the G-quadruplex in the MYC promoter. To distinguish between these possibilities, the luciferase activity of the pGL3-WT and pGL3-E-box mutant constructs were determined after treatment with GTC365. […]

Structure (SMILES) | reduction of telomere length ([1]; 25-30 days) [%] | effect on MYC mRNA level (MYC mRNA) | increase in Tm (ΔTm) ([2]; 0.5 equivalents) [°C] | increase in Tm (ΔTm) ([2]; 1 equivalent) [°C] | luciferase activity [3] | reduction of telomere length ([1]; 10 days) [%] | increase in Tm (ΔTm) ([2]; 2 equivalents)
CN(C)c1ccc(Nc2c3ccc(NC(=O)CCN4CCCC4)cc3nc3cc(NC(=O)CCN4CCCC4)ccc23)cc1 [BRACO-19, reference compound] | ~12 | decreased | 2.41 | 8.73 | decreased | – | –
N=C(N)NCCCS(=O)(=O)Nc1ccc(Nc2c3ccccc3nc3cc([N+](=O)[O-])ccc23)cc1 [GTC365] | – | no significant change | – | 6.47 | dose-dependent decrease | 20 | 12.9 °C and 12.92 °C
